Experimental data as given in patent publication US20190134005A1 (BioMarin Pharmaceutical Inc., priority 2016, published 2019).
Where two headings read alike, the source gives them in different places.

Target: T1, human CGT (Homo sapiens, UniProt Q16880)
T1 sequence (Q16880 21-541): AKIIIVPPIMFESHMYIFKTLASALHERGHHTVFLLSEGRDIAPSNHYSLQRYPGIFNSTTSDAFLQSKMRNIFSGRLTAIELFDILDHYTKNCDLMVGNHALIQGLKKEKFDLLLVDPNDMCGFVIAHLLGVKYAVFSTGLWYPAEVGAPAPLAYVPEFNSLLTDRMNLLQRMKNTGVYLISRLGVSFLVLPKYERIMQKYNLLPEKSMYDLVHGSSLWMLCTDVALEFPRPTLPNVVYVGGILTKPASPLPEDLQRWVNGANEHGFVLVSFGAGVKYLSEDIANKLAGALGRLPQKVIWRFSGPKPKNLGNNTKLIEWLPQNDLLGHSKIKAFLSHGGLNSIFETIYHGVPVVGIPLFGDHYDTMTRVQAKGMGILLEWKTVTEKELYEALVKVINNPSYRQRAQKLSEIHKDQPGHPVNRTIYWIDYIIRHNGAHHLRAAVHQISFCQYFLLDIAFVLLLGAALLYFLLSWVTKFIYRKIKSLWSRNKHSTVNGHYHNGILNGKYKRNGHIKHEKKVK
Assay: Assay 1: CGT Enzymatic Assay (RapidFire/MS/MS, 0.01% Tween 80)
Format: biochemical
Settings: Table 1, Compounds of Formula (I) and Formula (II), CGT enzymatic assay, read-out: IC50

[1] = C6-NBD-dihydro-galactosylceramide readout

| IC50 [µM] | IC50 [1] [µM] | Compound |
| --- | --- | --- |
| < 1 | – | CC[C@H]1N(c2ccc(Br)cc2)C(=O)N(c2ccc(Br)cc2)C1(O)c1cccc(C(F)(F)F)c1 (stereo partly drawn) [Compound 67-2, (5R)-1,3-bis(4-bromophenyl)-5-ethyl-4-hydroxy-4-(3-(trifluoromethyl)phenyl)imidazolidin-2-one] |
| < 1 | – | O=C1N(c2ccc(Cl)cc2)C2(COC2)C(O)(c2cccc(OC(F)(F)F)c2)N1c1ccc(Cl)cc1 (stereo not drawn) [Compound 150, 5,7-bis(4-chlorophenyl)-8-hydroxy-8-(3-(trifluoromethoxy)phenyl)-2-oxa-5,7-diazaspiro[3.4]octan-6-one] |
| < 1 | – | CC#Cc1cccc(C2(O)[C@@H](C)N(c3ccc(Cl)cc3)C(=O)N2c2ccc(Cl)cc2)c1 (stereo partly drawn) [Compound 103-2, (5R)-1,3-bis(4-chlorophenyl)-4-hydroxy-5-methyl-4-(3-(prop-1-yn-1-yl)phenyl)imidazolidin-2-one] |
| < 1 | – | C[C@H]1N(c2ccc(Cl)cc2)C(=O)N(c2ccc(Cl)cc2)C1(O)c1cccc(C#N)c1 (single isomer, unassigned) [Compound 99-2] |
| < 1 | – | CC[C@@H]1N(c2ccc(Br)cc2)C(=O)N(c2ccc(Br)cc2)C1(O)c1cccc(C)c1 (stereo partly drawn) [Compound 76-1, (5S)-1,3-bis(4-bromophenyl)-5-ethyl-4-hydroxy-4-(m-tolyl)imidazolidin-2-one] |
| 1 to 10 | – | CCCc1c(-c2cccc(C(F)(F)F)c2)n(-c2ccc(Cl)cc2)c(=O)n1-c1ccc(Cl)cc1 [Compound 243, 1,3-bis(4-chlorophenyl)-4-propyl-5-(3-(trifluoromethyl)phenyl)-1,3-dihydro-2H-imidazol-2-one] |
| < 1 | – | CCC[C@H]1N(c2ccc(Br)cc2)C(=O)N(c2ccc(Br)cc2)C1(O)c1cccc(CC)c1 (stereo partly drawn) [Compound 88-2, (5R)-1,3-bis(4-bromophenyl)-4-(3-ethylphenyl)-4-hydroxy-5-propylimidazolidin-2-one] |
| 1 to 10 | – | C[C@]1(C(F)(F)F)N(c2ccc(Cl)cc2)C(=O)N(c2ccc(Cl)cc2)C1(O)c1cccc(OC(F)(F)F)c1 (single isomer, unassigned) [Example 159-1] |
| < 1 | – | CCC1(O)[C@H](c2ccccc2)N(c2ccc(Br)cc2)C(=O)N1c1ccc(Br)cc1 (stereo partly drawn) [Example 45-1] |
| – | < 1 | N#Cc1ccc(N2C(=O)N(c3ccc(Br)cc3)C(O)(c3cccc(OC(F)(F)F)c3)C23CCCC3)cc1 (stereo not drawn) [Example 325, 4-(3-(4-bromophenyl)-4-hydroxy-2-oxo-4-(3-(trifluoromethoxy)phenyl)-1,3-diazaspiro[4.4]nonan-1-yl)benzonitrile] |
| 1 to 10 | – | O=C1N(c2ccc(Cl)cc2)CC(O)(c2ccccc2)N1c1ccc(Cl)cc1 (stereo not drawn) [Example 12, 1,3-bis(4-chlorophenyl)-4-hydroxy-4-phenylimidazolidin-2-one] |
| < 1 | – | O=C1N(c2ccc(Br)cc2)CC(O)(c2cccc(OC(F)(F)F)c2)N1c1ccc(Br)cc1 (stereo not drawn) [Compound 58, 1,3-bis(4-bromophenyl)-4-hydroxy-4-(3-(trifluoromethoxy)phenyl)imidazolidin-2-one] |
| – | < 1 | CCc1ccc(N2C(=O)N(c3ccc(C#N)cc3)C3(COC3)C2(O)c2cccc(OC(F)(F)F)c2)cc1 (stereo not drawn) [Example 337, 4-(7-(4-ethylphenyl)-8-hydroxy-6-oxo-8-(3-(trifluoromethoxy)phenyl)-2-oxa-5,7-diazaspiro[3.4]octan-5-yl)benzonitrile] |
| 1 to 10 | – | C[C@]1(c2cccc(Cl)c2)C(O)N(c2ccc(Cl)cc2)C(=O)N1c1ccc(Cl)cc1 (single isomer, unassigned) [Compound 149-1] |
| > 50 | – | CC(C)c1ccc(C2(O)C(=O)N(c3ccccc3)C(=O)N2c2ccccc2)cc1 (stereo not drawn) [Compound 153, 5-hydroxy-5-(4-isopropylphenyl)-1,3-diphenylimidazolidine-2,4-dione] |
| < 1 | – | O=C1N(c2ccc(Cl)cc2)C(C2CCC2)C(O)(c2cccc(OC(F)(F)F)c2)N1c1ccc(Cl)cc1 (stereo not drawn) [Example 191, 1,3-bis(4-chlorophenyl)-5-cyclobutyl-4-hydroxy-4-(3-(trifluoromethoxy)phenyl)imidazolidin-2-one] |
| > 50 | – | COc1ccc(C2(O)CN(c3ccc(Br)cc3)C(=O)N2c2ccc(Br)cc2)cn1 (stereo not drawn) [Example 54, 1,3-bis(4-bromophenyl)-4-hydroxy-4-(6-methoxypyridin-3-yl)imidazolidin-2-one] |
| < 1 | – | CCCC[C@@H]1N(c2ccc(Cl)cc2)C(=O)N(c2ccc(Cl)cc2)C1(O)c1cccc(C#N)c1 (stereo partly drawn) [Compound 116-1, 3-((5S)-5-butyl-1,3-bis(4-chlorophenyl)-4-hydroxy-2-oxoimidazolidin-4-yl)benzonitrile] |

| IC50 [µM] | IC50 [1] [µM] | Compound |
| --- | --- | --- |
| > 50 | – | O=C1N(c2ccccc2)CC(O)(c2ccccc2)N1c1ccc(Br)cc1 (stereo not drawn) [Example 20, 3-(4-bromophenyl)-4-hydroxy-1,4-diphenylimidazolidin-2-one] |
| 1 to 10 | – | CCc1cccc(C2(O)CN(c3ccc(Br)cc3)C(=O)N2c2ccc(Br)cc2)c1 (stereo not drawn) [Example 47, 1,3-bis(4-bromophenyl)-4-(3-ethylphenyl)-4-hydroxyimidazolidin-2-one] |
| 10 to 50 | – | O=C1N(c2ccc(Cl)cc2)[C@@H](c2ccccc2)[C@@](O)(CO)N1c1ccc(Cl)cc1 [Example 218-2, (4R,5S)-1,3-bis(4-chlorophenyl)-4-hydroxy-4-(hydroxymethyl)-5-phenylimidazolidin-2-one] |
| < 1 | – | C[C@H]1N(c2ccc(Cl)cc2)C(=O)N(c2ccc(Cl)cc2)C1(O)c1cccc(Br)c1 (stereo partly drawn) [Compound 94-2, (5R)-4-(3-bromophenyl)-1,3-bis(4-chlorophenyl)-4-hydroxy-5-methylimidazolidin-2-one] |
| < 1 | – | CCC1N(c2ccc(F)cc2)C(=O)N(c2ccc(F)cc2)C1(O)c1cccc(OC(F)(F)F)c1 (stereo not drawn) [Compound 131, 5-ethyl-1,3-bis(4-fluorophenyl)-4-hydroxy-4-(3-(trifluoromethoxy)phenyl)imidazolidin-2-one] |
| < 1 | – | COC[C@H]1N(c2ccc(Cl)cc2)C(=O)N(c2ccc(Cl)cc2)C1(O)c1cccc(OC(F)F)c1 (stereo partly drawn) [Compound 238-2, (5R)-1,3-bis(4-chlorophenyl)-4-(3-(difluoromethoxy)phenyl)-4-hydroxy-5-(methoxymethyl)imidazolidin-2-one] |
| – | < 1 | O=C1N(c2ccc(Cl)cc2)C2(COC2)C(O)(c2sccc2Br)N1c1ccc(Cl)cc1 (stereo not drawn) [Example 310, 8-(3-bromothiophen-2-yl)-5,7-bis(4-chlorophenyl)-8-hydroxy-2-oxa-5,7-diazaspiro[3.4]octan-6-one] |
| – | < 1 | N#Cc1ccc(N2C(=O)N(c3ccc(Cl)cc3)C3(COC3)C2(O)c2cccc(OC(F)(F)F)c2)cc1 (stereo not drawn) [Compound 274, 4-(5-(4-chlorophenyl)-8-hydroxy-6-oxo-8-(3-(trifluoromethoxy)phenyl)-2-oxa-5,7-diazaspiro[3.4]octan-7-yl)benzonitrile] |
| – | < 1 | O=C1N(c2ccccc2)C2(CCC2)C(O)(c2cccc(OC(F)(F)F)c2)N1c1ccc(Cl)cc1 (stereo not drawn) [Example 334, 7-(4-chlorophenyl)-8-hydroxy-5-phenyl-8-(3-(trifluoromethoxy)phenyl)-5,7-diazaspiro[3.4]octan-6-one] |
| < 1 | – | CCCC1N(c2ccc(Cl)cc2)C(=O)N(c2ccc(Cl)cc2)C1(O)c1cccc(Cl)c1 (stereo not drawn) [Compound 114, 4-(3-chlorophenyl)-1,3-bis(4-chlorophenyl)-4-hydroxy-5-propylimidazolidin-2-one] |
| 1 to 10 | – | CCOC(=O)C1(O)C(c2ccccc2)N(c2ccc(Cl)cc2)C(=O)N1c1ccc(Cl)cc1 (stereo not drawn) [Example 217, ethyl 1,3-bis(4-chlorophenyl)-4-hydroxy-2-oxo-5-phenylimidazolidine-4-carboxylate] |
| 10 to 50 | – | O=C1N(c2ccc(Br)cc2)CC(O)(c2ccc(Cl)cc2)N1c1ccc(Br)cc1 (stereo not drawn) [Example 19, 1,3-bis(4-bromophenyl)-4-(4-chlorophenyl)-4-hydroxyimidazolidin-2-one] |
| < 1 | – | C[C@@H]1N(c2ccc(Br)cc2)C(=O)N(c2ccc(Br)cc2)C1(O)c1cccc(OC(F)(F)F)c1 (stereo partly drawn) [Compound 66-1, (5S)-1,3-bis(4-bromophenyl)-4-hydroxy-5-methyl-4-(3-(trifluoromethoxy)phenyl)imidazolidin-2-one] |
| 50 to 100 | – | CC1(O)C(=O)N(c2ccc(Br)cc2)C(=O)N1c1ccc(Br)cc1 (stereo not drawn) [Example 193, 1,3-bis(4-bromophenyl)-5-hydroxy-5-methylimidazolidine-2,4-dione] |
| 1 to 10 | – | CCCc1c(-c2cccc(CC)c2)n(-c2ccc(Cl)cc2)c(=O)n1-c1ccc(Cl)cc1 [Compound 244, 1,3-bis(4-chlorophenyl)-4-(3-ethylphenyl)-5-propyl-1,3-dihydro-2H-imidazol-2-one] |
| < 1 | – | CC1N(c2ccc(Br)cc2)C(=O)N(c2ccc(Br)cc2)C1(O)c1cccc(OC(F)(F)F)c1 (stereo not drawn) [Compound 66, 1,3-bis(4-bromophenyl)-4-hydroxy-5-methyl-4-(3-(trifluoromethoxy)phenyl)imidazolidin-2-one] |
| < 1 | – | O=C1N(c2ccc(Br)cc2)[C@@H](C2CC2)C(O)(c2ccccc2)N1c1ccc(Br)cc1 (stereo partly drawn) [Compound 115-1, (5S)-1,3-bis(4-bromophenyl)-5-cyclopropyl-4-hydroxy-4-phenylimidazolidin-2-one] |
| < 1 | – | CC[C@H]1N(c2ccc(F)cc2)C(=O)N(c2ccc(F)cc2)C1(O)c1cccc(C(F)(F)F)c1 (single isomer, unassigned) [Compound 139-2] |
